Assay results reported in patent US20100035822A1, “PROLINE-RICH PEPTIDES, PHARMACEUTICAL COMPOSITION, USE OF ONE OR MORE PEPTIDES AND METHOD OF TREATMENT” (priority 2006, published 2010).

Test system: C6 cells from rat glioma
Experiment: NO production in C6 glia cells
Assay type: cell-based
Protocol: All reagents for cellular biology experiments were purchased from Invitrogen. C6 cells from rat glioma were cultured in DMEM, supplemented with 10% fetal bovine serum, streptomycin sulphate (100 μg/ml), and penicillin G (100 U/ml). Cultures were kept at 37° C. in 5% CO2 atmosphere. 24 hours before peptides were added, cells were transferred to a 24 well plate (1.5×10^5 cells/ml/well), containing DMEM medium lacking serum. Peptides were added to the cultures to a final concentration of 1 μM, and incubated for 24 hours at 37° C. in 5% CO2 atmosphere. The medium was collected and stored at −80° C.
NO concentration was determined in 1 ml of culture medium, which was incubated with N-ethylmaleimide at a final concentration of 10 mM, for 24 hours. The supernatant of a centrifugation at 1.000 rpm was injected in the NOA equipment (Nitric Oxide Analyser-Sievers) for NO quantification.

With <ENWPHPQIPP [SEQ ID NO 8] the “rank of efficiency in activating nitrite production” value was “the most efficient”.
